Experiments:
[1] = tested on: aortic sterol content; test: Decrease of aortic sterol content without effecting serum sterol in cholesterol-fed cockerels; assay type: in vivo, Day-old Cockerels; design: key: Active: Compounds which statistically decrease the aortic sterol content without having an effect on serum sterol are considered to be active; conditions: 525 mg. test compound and 20 g. cholesterol per kg. of diet, 14 days
Description: The compounds were further tested for their ability to decrease aortic sterol content without effecting serum sterol.
Day-old Cockerels were placed on diets consisting of pullet starter mash supplemented with either 20 g. cholesterol (control group) or 20 g. cholesterol and 525 mg. test compound (drug-treated group) per kg. of diet.
For the control diet, 20 g. of cholesterol was dissolved in 200 ml. of chloroform, mixed into one kg. of pullet starter mash and then the choloroform was removed by evaporation.
For the drug-treatment group, 525 mg. of the test compound was dissolved in 100 ml. of chloroform, mixed into a diet prepared as described above and then the chloroform was evaporated.
The cockerels were housed three per cage and given water and their respective diet ad libitum for 14 days. Blood was collected by cardiac puncture and the serum was saponified [Trinder, P., Analyst, 77, 321 (1952)] and extracted and the cholesterol content determinted [Zlatkis, A., et al., J. Lab Clin Med., 41 486 (1953)]. The aortae were removed, cleaned of adventitial tissue and the sterol content determined according to the above procedures. Compounds which statistically decrease the aortic sterol content without having an effect on serum sterol are considered to be active.

[2] = biological target: T1, fatty acyl CoA:-cholesterol acyl transferase (ACAT) (Rattus norvegicus, UniProt O70536); test: Inhibition of enzymatic esterification of cholesterol (ACAT inhibition), rat adrenal supernatant; assay type: biochemical; conditions: final concentration 5.2 μg./ml., 37° C., 30 minutes
T1 construct: The supernatant, containing the microsomal fraction, served as the source of the cholesterol-esterifying enzyme; from tissue; host or cells: rat adrenals, 1000 x g supernatant containing the microsomal fraction
T1 sequence (O70536 1-545): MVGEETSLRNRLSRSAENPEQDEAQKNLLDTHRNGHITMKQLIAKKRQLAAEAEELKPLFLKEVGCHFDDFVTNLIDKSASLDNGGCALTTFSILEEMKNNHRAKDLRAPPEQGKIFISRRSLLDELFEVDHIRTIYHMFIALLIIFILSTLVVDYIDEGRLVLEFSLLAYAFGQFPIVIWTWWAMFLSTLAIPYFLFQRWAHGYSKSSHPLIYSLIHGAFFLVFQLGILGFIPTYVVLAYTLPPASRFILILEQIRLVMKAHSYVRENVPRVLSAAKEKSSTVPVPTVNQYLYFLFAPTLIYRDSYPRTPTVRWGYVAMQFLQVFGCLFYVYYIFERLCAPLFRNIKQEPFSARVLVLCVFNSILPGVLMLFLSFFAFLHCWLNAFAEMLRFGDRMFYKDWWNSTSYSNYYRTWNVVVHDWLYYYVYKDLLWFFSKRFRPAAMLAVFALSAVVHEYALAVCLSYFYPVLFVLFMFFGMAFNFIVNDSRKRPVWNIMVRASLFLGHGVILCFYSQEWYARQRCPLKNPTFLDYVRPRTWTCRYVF
Description: The compounds of the present invention were tested for their ability to inhibit the enzymatic esterification of cholesterol according to the procedure of Hashimoto, et al., Life Sci., 12(Part II), 1-12 (1973).
Rat adrenals were homogenized in 0.2 M monobasic potassium phosphate buffer, pH 7.4, and centrifuged at 1000 times gravity for 15 minutes at 5° C. The supernatant, containing the microsomal fraction, served as the source of the cholesterol-esterifying enzyme, fatty acyl CoA:-cholesterol acyl transferase (ACAT). A mixture comprising 50 parts of adrenal supernatant, 10 parts of bovine serum albumin (50 mg./ml.), 3 parts of test compound (final concentration 5.2 μg./ml.) and 500 parts of buffer were preincubated at 37° C. for 10 minutes, following which 20 parts of oleoyl […] were added and the final mixture was incubated at 37° C. for 30 minutes. A control mixture, omitting the test compound, was prepared and treated in the same manner. The lipids from the incubation mixture were extracted into an organic solvent and separated by thin-layer chromatography. The cholesterol ester fraction was counted in a scintillation counter. A statistically significant inhibition of the ACAT enzyme is the criterion for activity.

inhibition at 5.2 µg/mL [2] | SMILES | Result (decrease of aortic sterol content without effect on serum sterol) [1]
34.6% | O=C(Cc1ccccc1)N1CCN(c2ccccc2)CC1 [1-phenyl-4-phenylacetylpiperazine, 1-Phenyl-4-phenylacetylpiperazine] | Active
36.4% | O=C(Cc1ccc([N+](=O)[O-])cc1)N1CCN(c2cnccn2)CC1 [1-(p-Nitrophenylacetyl)-4-(2-pyrazinyl)piperazine] | Active
38.3% | O=C(Cc1ccc(Cl)c(Cl)c1)N1CCN(c2cnccn2)CC1 [1-(3,4-Dichlorophenylacetyl)-4-(2-pyrazinyl)piperazine] | Active

— patent US4439606A, “Antiatherosclerotic 1-piperazinecarbonyl compounds” (American Cyanamid Company, priority 1982, dated 1984)
